The results in this text go back to US20080261891A1, “COMPOSITIONS AND METHODS FOR USING SYRINGOPEPTIN 25A AND RHAMNOLIPIDS” (Utah State University, priority 2007, published 2008).

For one series, the system named is M. tuberculosis H37Rv. The experiment in a line: MIC by microplate Alamar Blue assay (MABA). To be noted: 7H12 media. It is filed as cell-based, Mycobacterium tuberculosis.
Series [1] has as its system mouse enteroendocrine cells (STC-1). The series is described as follows: Toxicity to mammalian cells, percent cell death (Nucleocounter). The note with it: positive control. As for the experimental part:
(§1) Toxicity of the two compounds to mammalian cells was assayed in cell culture using mouse enteroendocrine cells (STC-1), human embryonic kidney cells (HEK 293; ATCC CRL-1573), and human lung fibroblasts (LL47; ATCC CCL-135). […] The human embryonic kidney cells and human lung fibroblasts were grown as per the American Type Culture Collection's recommendation, while the mouse enteroendocrine cells were grown as described by Vincent et al. (2001, Proc. Natl. Acad. Sci., 99:2392-2397). Media and sera were purchased from HyClone Laboratories (Logan, Utah). All cells were grown in 10% fetal bovine serum (FBS).
(§2) The number in the parenthesis represents the concentration of each compound in μg/mL. The percent cell death was benchmarked to 100% lysis with the positive control. The number of total cells and dead cells were counted after 6, 24, and 48 h using a Nucleocounter Automated cell counting system (New Brunswick; Edison, N.J.). Briefly, cells (STC, 200,000 cells/well; HEK 293, 200,000 cells/well; and LL47, 100,000 cells/well) were incubated in the appropriate medium for 24 h prior to addition of fresh media containing the antimicrobial compounds. After addition of the antimicrobial compound, the cell cultures were incubated at 37° C. with 5% CO2 for 6, 24, and 48 h. Cells were harvested by trypsinization using 0.25% trypsin-EDTA for 2 min. The trypsin was neutralized by addition of 200 μL of serum containing fresh medium. The cells were then harvested and transferred to 1.5 mL tubes, centrifuged (3-5 min at <100×g), and resuspended in 200 μL of fresh medium. For the total cell count, 100 μL of the suspension was added to lysis buffer (Reagent A100 in the starting kit (Cat No. M1293-0020, New Brunswick Scientific) for 30 s, which was stabilized using 100 μL of Reagent B. A positive control of completely lysed cells was used along with a negative control using sterile PBS (pH 7.4). For dead cell counts, 100 μL of cell lysate was counted without the use of lysis buffer or stabilizing buffer. All cell counts were obtained using the Nucleocounter automated cell counting system. Data were reported as the percent of cell death. The toxicity testing was done in replicate using three wells per test.

Series [2] relates to human lung fibroblasts (LL47). The series is described as above. The note with it: positive control. As for the experimental part: as §1, §2
For series [3], the system named is human embryonic kidney cells (HEK 293). The series is described as above. The note with it: positive control. Here is the method:
as §1, §2

As for `NNC(=O)c1ccncc1` [Isoniazid], in the series on M. tuberculosis H37Rv, the “expected MIC range (quality control)” value lay within 0.025 to 0.1 µg/mL.

On to triton [reference compound], for which the lysis in series [1], in series [2] and in series [3] was 100% in each case.
